Measurements: publication PMC11433870, “Neurotoxicity, Neuroprotection, In Vitro MAOA/MAOB Inhibitory Activity Assessment, Molecular Docking, and Permeability Assay Studies of Newly Synthesized Hydrazones Containing a Pyrrole Ring” (Molecules, 2024)
Where “and” joins values, the source holds several entries; their conditions need not be identical. Identical values can stand only once.

What was measured:
[1] = test system: isolated rat brain synaptosomes; experiment: 6-OHDA-induced neurotoxicity model: synaptosomal viability; type: cell-based; details: toxic agent applied alone at 150 µM, compared to control (untreated synaptosomes)
Method: (§1) Synaptosomes and mitochondria were obtained by multiple, subcellular fractionation using a Percoll gradient. The necessary brain homogenate was prepared and centrifuged at 1000× g for 5 min at +4 °C. After centrifugation, the supernatants were collected and centrifuged again at 1000× g for 5 min at +4 °C. The supernatants from the two centrifugations were mixed and distributed into four tubes. The tubes were centrifuged at 10,000× g for 20 min at +4 °C three times. The last two centrifugations were for purification of synaptosomes and mitochondria.
The isolation of the required fractions was based on the formation of a colloidal solution of silicon (Percoll), as per the procedure, including: 1. Preparation of a 90% stock solution of Percoll, followed by preparation of two Percoll solutions of different percentages: 16% and 10%. An amount of 4 mL of each of the prepared 16% and 10% Percoll solutions was placed in six test tubes. A 90% Percoll (7.5% Percoll) was added to the precipitate obtained from the previous step from the last centrifugation. The obtained mixtures in all 12 tubes were centrifuged for 20 min at 15,000× g +4 °C. […]
After 1 h incubation with the substances and toxic agent, synaptosomes were centrifuged on a microcentrifuge for 1 min at 15,000× g. […] After dissolution, the amount of formazan is measured spectrophotometrically at λ = 580 nm.

[2] = test system: isolated rat brain synaptosomes; experiment: 6-OHDA-induced neurotoxicity model: GSH level; type: cell-based; details: for preservation of GSH level: 50 µM in combination with 6-OHDA (150 µM), compared to the toxic agent
Method: as §1
(§2) The isolation of the required fractions was based on the formation of a colloidal solution of silicon (Percoll), as per the procedure, including: 1. Preparation of a 90% stock solution of Percoll, followed by preparation of two Percoll solutions of different percentages: 16% and 10%. An amount of 4 mL of each of the prepared 16% and 10% Percoll solutions was placed in six test tubes. A 90% Percoll (7.5% Percoll) was added to the precipitate obtained from the previous step from the last centrifugation. The obtained mixtures in all 12 tubes were centrifuged for 20 min at 15,000× g +4 °C. After centrifugation, three layers are formed in the tubes. The bottom layer contains mitochondria, the top layer contains lipids, and the middle layer—at the 16% to 10% Percoll limit—contains synaptosomes. The respective layer from each tube is removed through a glass pasteurizer and collected into one. Buffer B + glucose is added to it. The mixture was centrifuged at 10,000× g for 20 min at +4 °C. Thus, the isolation buffer is exchanged with the incubation buffer. After centrifugation, the pellet where the synaptosomes are mixed and made up with buffer B + glucose.
(§3) Synaptosomes and mitochondria were incubated with the test substances at a concentration of 50 µM for 1 h.
Synaptosomes were incubated with 6-OHDA (150 μM) for 1 h.
(§4) After precipitation of the proteins with trichloroacetic acid, the thiol groups in the supernatant were determined by DTNB, which produced a yellow-colored compound that absorbs light at λ = 412 nm. After incubation, synaptosomes were centrifuged at 4000× g for 3 min. The supernatant was removed and the pellet taken for GSH determination. It was treated with 5% trichloroacetic acid, then left for 10 min on ice. It was centrifuged at 8000× g for 10 min (2 °C). The supernatant is taken for GSH determination and frozen at −20 °C. Immediately before measurement, the samples are neutralized with 5N NaOH [58].

[3] = test system: isolated rat brain synaptosomes; experiment: Neurotoxicity: synaptosomal viability (MTT), substances applied alone; type: cell-based; details: 50 µM applied alone, 1 h, compared to control (untreated synaptosomes)
Method: as §1, §2, §3
After 1 h incubation with the substances and toxic agent, synaptosomes were centrifuged on a microcentrifuge for 1 min at 15,000× g. The pellet was mixed gently with buffer B + glucose, and the supernatant where 6-OHDA was discarded to prevent oxidation of MTT. Centrifuge again at 15,000× g for 1 min. After the second wash, buffer B + glucose was added to the pellet. To the ‘washed’ synaptosomes, 60 µL of MTT solution is added. The plates were incubated with the MTT solution at 37 °C for 10 min. After incubation, the samples were centrifuged at 15,000× g for 2 min. The excess liquid was removed, and a DMSO solution was used to dissolve the formed formazan crystals. After dissolution, the amount of formazan is measured spectrophotometrically at λ = 580 nm.

[4] = test system: isolated rat brain synaptosomes; experiment: Neurotoxicity: reduced glutathione (GSH) level in synaptosomes, substances applied alone; type: cell-based; details: 50 µM applied alone, 1 h, compared to control
Method: as §1, §2, §3, §4

[5] = test system: isolated rat brain mitochondria; experiment: Neurotoxicity: MDA production in brain mitochondria, substances applied alone; type: cell-based; details: 50 µM applied alone, compared to control
Method: as §1, §2, §3
To the mitochondria was added 0.3 mL of 0.2% thiobarbituric acid and 0.25 mL of sulfuric acid (0.05 M), and the mixture was boiled for 30 min. After boiling, the tubes were placed on ice, and 0.4 mL of n-butanol was added to each, then centrifuged at 3500× g for 10 min. The amount of MDA was determined spectrophotometrically at 532 nm.

[6] = test system: isolated rat brain mitochondria; experiment: Neurotoxicity: GSH level in brain mitochondria, substances applied alone; type: cell-based; details: 50 µM applied alone, compared to control
Method: as §1, §2
[…]. After centrifugation of the homogenate at 6000× g, a 0.04% solution of DTNB was added to the supernatant to give a yellow color, the determination being spectrophotometric at 412 nm.

[7] = test system: isolated rat brain microsomes; experiment: Neurotoxicity: MDA production in brain microsomes, substances applied alone; type: cell-based; details: 50 µM applied alone, compared to control
Method: (§5) The brain was homogenized in 9 volume parts of 0.1 M Tris buffer containing: 0.1 mM dithiothreitol, 0.1 mM phenylmethylsulfonyl fluoride, 0.2 mM EDTA, 1.15% KCl, and 20% (v/v) glycerol (pH 7.4). The resulting homogenate was centrifuged twice at 17,000× g for 30 min. The supernatants from the two centrifugations were pooled and centrifuged twice at 100,000× g for 1 h. The pellet was frozen in 0.1 M Tris buffer.
(§6) After completion of incubation of the microsomes with the substances and toxic agent, the reaction was stopped by the addition of 0.5 mL of 20% trichloroacetic acid, followed by 0.5 mL of 0.67% thiobarbituric acid. The ongoing reactions are associated with the formation of a colored complex between the malondialdehyde formed and thiobarbituric acid. The determination of MDA was spectrophotometric at 535 nm. A molar extinction coefficient of […] was used for the calculation.

[8] = test system: isolated rat brain microsomes; experiment: Fe2+/AA-induced non-enzyme lipid peroxidation model: MDA production; type: cell-based; details: 50 µM in combination with Fe2+/AA, compared to the toxic agent
Method: as §5
Non-enzyme-induced lipid peroxidation was induced with 20 μM ferrous sulfate solution and 0.5 mM ascorbic acid solution [62].
as §6

[9] = biological target: T1, human recombinant MAOA enzyme (hMAOA) (Homo sapiens, UniProt P21397); experiment: Human recombinant MAOA enzyme activity (fluorometric, Amplex Red); type: biochemical; details: read-out: IC50 (EC50), (µM ± SD) hMAOA
T1 sequence (P21397 1-527): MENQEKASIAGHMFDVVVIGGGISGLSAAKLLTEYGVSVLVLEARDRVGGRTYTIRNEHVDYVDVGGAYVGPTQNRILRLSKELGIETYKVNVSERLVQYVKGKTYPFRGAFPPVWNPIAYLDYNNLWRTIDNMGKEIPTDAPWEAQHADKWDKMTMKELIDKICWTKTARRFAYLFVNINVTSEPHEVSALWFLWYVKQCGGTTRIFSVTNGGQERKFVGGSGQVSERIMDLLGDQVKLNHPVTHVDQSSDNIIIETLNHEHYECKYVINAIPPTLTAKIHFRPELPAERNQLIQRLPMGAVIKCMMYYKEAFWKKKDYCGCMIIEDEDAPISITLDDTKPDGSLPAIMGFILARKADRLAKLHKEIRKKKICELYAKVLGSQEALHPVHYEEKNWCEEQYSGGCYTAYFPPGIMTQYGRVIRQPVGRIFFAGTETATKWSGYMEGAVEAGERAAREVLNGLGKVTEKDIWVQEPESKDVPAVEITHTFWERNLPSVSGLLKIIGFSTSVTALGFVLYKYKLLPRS
Method: (§7) The activity of recombinant human MAOA/B was determined fluorometrically. Tyramine hydrochloride was used as substrate. The activity is determined by detection of H2O2 production. This production is in turn reported by binding to horseradish peroxidase using N-acetyl-3,7-dihydroxyphenoxazine (AmplexRed, Thermo Fisher Scientific, Waltham, MA, USA) [63].
(§8) Working solutions of the test substances, reagents, and human recombinant MAOA/B enzyme (hMAOA/B) were prepared in reaction buffer according to the manufacturer’s instructions. A pure working solution of MAOA/B in reaction buffer, a working solution of MAOA/B containing hydrogen peroxide, and a pure reaction buffer were used as controls. Substances were applied at a final concentration of 1 µM. The substances together with hMAOB were placed in a 96-well plate (8 samples for each substance), and then the plate was placed in an incubator for 30 min (in the dark, at 37 °C). Fluorimetric readings were performed in a Synergy 2 Microplate Reader at two wavelengths (570 nm and 690 nm).

[10] = biological target: T2, human recombinant MAOB enzyme (hMAOB) (Homo sapiens, UniProt P27338); experiment: Human recombinant MAOB enzyme activity (fluorometric, Amplex Red); type: biochemical; details: for inhibition at 1 µM: compared to control (pure hMAOB); for IC50: read-out: IC50 (EC50), (µM ± SD) hMAOB;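 on all read-outs here: tyramine as substrate, H2O2 formation detected by horseradish peroxidase coupled Amplex Red fluorescence read at 570 and 690 nm, compounds incubated with enzyme 30 min at 37 °C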
T2 sequence (P27338 1-520): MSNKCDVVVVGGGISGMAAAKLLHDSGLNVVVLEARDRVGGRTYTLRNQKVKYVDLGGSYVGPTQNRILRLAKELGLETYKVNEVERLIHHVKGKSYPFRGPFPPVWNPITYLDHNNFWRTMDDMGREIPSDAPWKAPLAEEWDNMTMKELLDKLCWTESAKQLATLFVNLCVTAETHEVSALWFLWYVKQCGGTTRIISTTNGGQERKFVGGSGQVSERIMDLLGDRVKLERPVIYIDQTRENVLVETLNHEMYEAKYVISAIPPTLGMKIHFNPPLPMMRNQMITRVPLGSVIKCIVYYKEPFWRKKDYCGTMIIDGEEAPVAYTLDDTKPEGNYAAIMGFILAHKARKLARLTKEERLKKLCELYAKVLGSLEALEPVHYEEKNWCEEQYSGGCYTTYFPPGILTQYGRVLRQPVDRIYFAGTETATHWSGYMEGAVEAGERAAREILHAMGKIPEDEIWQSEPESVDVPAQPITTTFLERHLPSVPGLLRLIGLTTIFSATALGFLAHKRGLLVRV
Method: as §7, §8

[11] = pH 7.4, 50 µM, 4 h, 25 °C; Pe calculated in 10^−6 cm/s, presented as −logPe
[12] = test system: isolated rat brain mitochondria; experiment: t-BuOOH-induced oxidative stress model: GSH level; details: 50 µM in combination with t-BuOOH (75 µM), compared to the toxic agent
[13] = test system: isolated rat brain mitochondria; experiment: t-BuOOH-induced oxidative stress model: MDA production; details: 50 µM in combination with t-BuOOH (75 µM), compared to the toxic agent

SMILES: NCCc1cc(O)c(O)cc1O [6-OHDA, 6-hydroxydopamine, reference compound]
- decrease in synaptosomal viability by toxic agent alone [1]: 50%
- decrease in GSH level by toxic agent alone ([2]; toxic agent applied alone at 150 µM, compared to control): 50%

SMILES: CCOC(=O)c1cc(-c2ccc(Br)cc2)n(CCC(=O)NN=Cc2ccc([N+](=O)[O-])cc2)c1C [8c]
- decrease of synaptosomal viability [3]: 30%
- decrease of glutathione (GSH) level [4]: 25%
- increase of MDA production [5]: 66%
- decrease of GSH level [6]: 25%
- increase of MDA production [7]: 60%
- preservation of GSH level [2]: 50%
- decrease of MDA production [8]: 27%
- IC50 [9]: > 100 µM
- SI: hMAOB selectivity index = IC50(hMAOA)/IC50(hMAOB) [10]: >123
- inhibition at 1 µM [10]: 20%
- IC50 [10]: 0.814 ± 0.2 µM
- PAMPA BBB −logPe [11]: 4.631 ± 0.047
- preservation of GSH level [12]: 40%
- reduction of MDA production [13]: 5%

SMILES: CCOC(=O)c1cc(-c2ccc(Br)cc2)n(CCC(=O)NN=Cc2cc(OC)c(O)c(OC)c2)c1C [8d]
- decrease of synaptosomal viability [3]: 20%
- decrease of glutathione (GSH) level [4]: 15%
- increase of MDA production [5]: 40%
- decrease of GSH level [6]: 15%
- increase of MDA production [7]: 30%
- preservation of GSH level [2]: 70%
- decrease of MDA production [8]: 54%
- IC50 [9]: > 100 µM
- SI: hMAOB selectivity index = IC50(hMAOA)/IC50(hMAOB) [10]: >204
- inhibition at 1 µM [10]: 45%
- IC50 [10]: 0.49 ± 0.09 µM
- PAMPA BBB −logPe [11]: 4.464 ± 0.026 and 4.464
- preservation of GSH level [12]: 80%
- reduction of MDA production [13]: 38%

SMILES: CCOC(=O)c1cc(-c2ccc(Br)cc2)n(CCC(=O)NN=Cc2ccc(OC)cc2OC)c1C [8e]
- decrease of synaptosomal viability [3]: 35%
- decrease of glutathione (GSH) level [4]: 20%
- increase of MDA production [5]: 69%
- decrease of GSH level [6]: 25%
- increase of MDA production [7]: 63%
- preservation of GSH level [2]: 50%
- decrease of MDA production [8]: 25%
- IC50 [9]: > 100 µM
- SI: hMAOB selectivity index = IC50(hMAOA)/IC50(hMAOB) [10]: >122
- inhibition at 1 µM [10]: 20%
- IC50 [10]: 0.817 ± 0.09 µM
- PAMPA BBB −logPe [11]: 5.714 and 5.714 ± 0.041
- preservation of GSH level [12]: 60%
- reduction of MDA production [13]: 11%
